Assay results as given in patent US20040191907A1, “Cultured cells of Ficus stipulata Thunb. (=Ficus thunbergii) and a method for culturing tissues of the Ficus stipulata Thunb. by using said cultured cells” (HIROSHIMA UNIVERSITY, priority 2001, published 2004).

Key:
[1] = system: cut pieces of the leaf, shoot and root tissues of the Ficus stipulata Thunb.; test: Experiment 1: polyblast formation from cut pieces cultured on medium containing thidiazuron and/or benzyladenine; format: cell-based; conditions: for Number of cut piece* (cut pieces with polyblast formation × 100/cut piece) / Number of shoots/cut piece: one month after the culturing; for induction of the Ficus stipulata Thunb. (polyblast formation / redifferentiation): culture medium containing at least one of TDZ and/or BA
Method: A culture medium in which the MS culture medium or the WP culture medium was used as a fundamental culture medium and 1% sucrose and 0.3% Gellan Gum were added as the carbonaceuous source and a gelling agent, respectively, was used.
Cut pieces, 0.5˜1 mm long, were prepared from leaf, shoot and root tissues of the Ficus stipulata Thunb. asepatically cultured. The cut pieces of the leaf, shoot and root tissues of the Ficus stipulata Thunb. thus prepared were implanted on a culture medium containing thidiazuron and/or benzyladenine as plant hormones, thereby culturing the Ficus stipulata Thunb. One month after the culturing, it was observed that polyblasts were formed from the cut pieces. The polyblasts were cut out, their cut edge were coated with iondoleacetic acid, and the polyblasts were implanted into the above culture medium or a culture containing pearlite and vermiculite, and allowed to take roots.

[2] = system: cut pieces from stem apexes, nodes and stem portions of Ficus stipulata Thunb.; test: Experiment 2: redifferentiation condition, polyblasts and buds formed at stem apex cut pieces; format: cell-based; conditions: for Number of cut pieces* in which polyflasts were formed at a stem apex: of 4 cut pieces; for Number of cut pieces* in which polyflasts were formed at a stem apex / Number of buds formed: six weeks; for Number of buds formed: stem apex; for redifferential state: used as the plant hormone, bright condition, WP culture medium
Method: A redifferentiation condition most suitable for the introduction of a gene into the Ficus stipulata Thunb. was examined, and the gene was tried introduced thereinto.
First, the redifferentiation condition was examined. As the Ficus stipulata Thunb., one sterilized and aseptically subcultured was used. The Ficus stipulata Thunb. aseptically grown (4 to 6 weeks after implanting the cutting) used, and cut pieces were prepared from stem apexes, nodes and stem portions, and implanted in the culture medium. Six weeks later, the number and the shape of buds were observed. In culturing the Ficus stipulata Thunb., 1/3 of a block of Florialite (a mixture of vermiculite and cellulose fibers) was added into a test tube (30×200 mm), to which 15 ml of the MS culture medium or the WP culture medium was added. The test tube was closed with a polypropylene cap, which was placed in an autoclave.
A braird appearing in the Ficus stipulata Thunb. having been aseptically subcultured in an Agripot (a plastic container) was cut by about 2 to 3 cm, its cut section was immersed into a 1 g/l solution (1 g/l) of 4-(3-indolyl)butyric acid, and the cut piece was implanted in the test piece thus prepared, and subjected to 4 to 8 week culturing.
The culturing conditions were: atmospheric temperature 25° C., illumination intensity 30˜40 μEm^−2s^−1, a bright condition of 30˜40μEm^−2s^−1 for 15 hours and a dark condition of 1˜2μEm^−2s^−1 for 9 hours.
The MS culture medium or the WP culture medium was used as a fundamental culture medium. Sucrose 2% was added into each of the culture media, thereby adjusting the pH values of the MS culture medium and the WP culture medium to 5.6 and 5.2, respectively. Further, Gellan Gum 3% was added to the culture medium, and it was autoclaved at 120° C. for 15 minutes, thereby preparing a solid culture medium. As plant hormones, […] (NAA), benzylaminopurine (BA), thidiazuron(TDZ), abscisic acid (ABA) and silver nitrate (AgNO3) were used.

O=C(Nc1ccccc1)Nc1cnns1 [TDZ, thidiazuron]
Number of cut piece* (cut pieces with polyblast formation × 100/cut piece) ([1]; BA 0 nM, TDZ 1 nM): 100
Number of shoots/cut piece ([1]; BA 0 nM, TDZ 1 nM): 1.5 ± 1.0
Number of cut piece* (cut pieces with polyblast formation × 100/cut piece) ([1]; BA 0 nM, TDZ 1 × 10^2 nM): 100
Number of shoots/cut piece ([1]; BA 0 nM, TDZ 1 × 10^2 nM): 2.5 ± 0.6
Number of cut piece* (cut pieces with polyblast formation × 100/cut piece) ([1]; BA 0 nM, TDZ 1 × 10^4 nM): 100
Number of shoots/cut piece ([1]; BA 0 nM, TDZ 1 × 10^4 nM): 1.5 ± 1.0
induction of the Ficus stipulata Thunb. (polyblast formation / redifferentiation) [1]: could be induced at a high probability
Number of cut pieces* in which polyflasts were formed at a stem apex ([2]; BA 0 nM, TDZ 1 nM): 4
Number of buds formed ([2]; BA 0 nM, TDZ 1 nM): 1.5 ± 1.0
Number of cut pieces* in which polyflasts were formed at a stem apex ([2]; BA 0 nM, TDZ 10^2 nM): 4
Number of buds formed ([2]; BA 0 nM, TDZ 10^2 nM): 2.5 ± 0.6
Number of cut pieces* in which polyflasts were formed at a stem apex ([2]; BA 0 nM, TDZ 10^4 nM): 4
Number of buds formed ([2]; BA 0 nM, TDZ 10^4 nM): 1.5 ± 1.0
redifferential state [2]: good redifferential state

c1ccc(CNc2ncnc3nc[nH]c23)cc1 [BA, benzyladenine]
Number of cut piece* (cut pieces with polyblast formation × 100/cut piece) ([1]; BA 9 nM, TDZ 0 nM): 50
Number of shoots/cut piece ([1]; BA 9 nM, TDZ 0 nM): 1.8 ± 2.4
Number of cut piece* (cut pieces with polyblast formation × 100/cut piece) ([1]; BA 22 nM, TDZ 0 nM): 100
Number of shoots/cut piece ([1]; BA 22 nM, TDZ 0 nM): 3.5 ± 0.6
Number of cut piece* (cut pieces with polyblast formation × 100/cut piece) ([1]; BA 36 nM, TDZ 0 nM): 100
Number of shoots/cut piece ([1]; BA 36 nM, TDZ 0 nM): 2.5 ± 1.0
Number of cut piece* (cut pieces with polyblast formation × 100/cut piece) ([1]; BA 44 nM, TDZ 0 nM): 100
Number of shoots/cut piece ([1]; BA 44 nM, TDZ 0 nM): 3.8 ± 0.5
induction of the Ficus stipulata Thunb. (polyblast formation / redifferentiation) [1]: could be induced at a high probability
Number of cut pieces* in which polyflasts were formed at a stem apex ([2]; BA 8.9 nM, TDZ 0 nM): 2
Number of buds formed ([2]; BA 8.9 nM, TDZ 0 nM): 1.8 ± 2.4
Number of cut pieces* in which polyflasts were formed at a stem apex ([2]; BA 22.2 nM, TDZ 0 nM): 4
Number of buds formed ([2]; BA 22.2 nM, TDZ 0 nM): 3.5 ± 0.6
Number of cut pieces* in which polyflasts were formed at a stem apex ([2]; BA 35.5 nM, TDZ 0 nM): 4
Number of buds formed ([2]; BA 35.5 nM, TDZ 0 nM): 2.5 ± 1.0
Number of cut pieces* in which polyflasts were formed at a stem apex ([2]; BA 44.4 nM, TDZ 0 nM): 4
Number of buds formed ([2]; BA 44.4 nM, TDZ 0 nM): 3.8 ± 0.5
redifferential state [2]: good redifferential state
